This assay concerns the target CDK4 (Homo sapiens, UniProt P11802+Q16531). The experiment in a line: CDK4 percentage degradation in Calu-1 cells (Table 6). The format is cell-based. The arrangement: Cells that express cyclin D1-3 and CDK4/6 proteins were treated with heterobifunctional compounds; endogenous in cells; host or cells: Calu-1. Particulars: 16 hours; for inhibition at 0.04 µM: 40 nM; for inhibition at 0.2 µM: 200 nM. As for the experimental part:
Calu-(cells were treated with heterobifunctional compounds at 40 nM or 200 nM for 16 hours A: protein percentage degradation […]; B: protein percentage degradation <80%, and ≥50%; C: protein percentage degradation <50%, and ≥30%; D; protein percentage degradation […]; -, data not available.
Calu-1, T47D, MCF7, HCC1428 and other cells were cultured at 37° C. with 5% CO2 in RPMI 1640 or DMEM medium supplemented with 10% fetal bovine serum. Cells were authenticated using the short tandem repeat (STR) assays. Mycoplasma test results were negative. For palbo-resistant cell model, T47D cells were cultured long-term to resistance in the presence of 1 μM Palbociclib. Cells were deemed resistant when growing in the presence of Palbo at the same rate as parental cells.
Cultured cells were washed with cold PBS once and lysed in cold RIPA buffer supplemented with protease inhibitors and phosphatase inhibitors (Beyotime Biotechnology). The solutions were then incubated at 4 ? for 30 min with gentle agitation to fully lysed cells. Cell lysates were centrifuged at 13,000 rpm for 10 min at 4 ? and pellets were discarded. Total protein concentrations in the lysates were determined following BCA assays (Beyotime Biotechnology). Cell lysates were mixed with Laemmli loading buffer and heated at 99° C. for 5 min. Proteins were resolved on SDS-PAGE and visualized using Western ECL Substrate kits on a ChemiDoc MP Imaging system (Bio-Rad). Protein bands were quantitated using the Image Lab software provided by Bio-Rad.

SMILES strings stand for the structures. Bounds are passed on as bounds.

Chain of CDK4 (P11802 2-303 limits assumed): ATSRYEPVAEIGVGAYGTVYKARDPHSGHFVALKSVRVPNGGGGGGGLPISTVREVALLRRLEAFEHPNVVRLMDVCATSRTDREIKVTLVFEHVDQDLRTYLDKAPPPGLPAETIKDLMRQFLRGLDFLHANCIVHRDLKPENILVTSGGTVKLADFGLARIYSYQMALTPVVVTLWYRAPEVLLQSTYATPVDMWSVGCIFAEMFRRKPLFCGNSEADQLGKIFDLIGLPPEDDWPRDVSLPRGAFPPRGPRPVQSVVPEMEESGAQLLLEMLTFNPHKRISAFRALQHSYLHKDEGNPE
Chain of CDK4 (P24385 whole entry partner): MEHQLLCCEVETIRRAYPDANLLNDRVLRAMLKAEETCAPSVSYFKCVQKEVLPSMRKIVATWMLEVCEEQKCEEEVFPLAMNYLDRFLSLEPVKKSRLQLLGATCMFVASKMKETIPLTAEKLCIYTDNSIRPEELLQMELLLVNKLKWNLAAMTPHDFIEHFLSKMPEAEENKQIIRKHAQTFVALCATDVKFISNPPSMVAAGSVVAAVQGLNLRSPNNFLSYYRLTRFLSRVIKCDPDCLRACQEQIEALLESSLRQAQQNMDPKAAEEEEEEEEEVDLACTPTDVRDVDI
Chain of CDK4 (Q16531 2-1140 limits assumed): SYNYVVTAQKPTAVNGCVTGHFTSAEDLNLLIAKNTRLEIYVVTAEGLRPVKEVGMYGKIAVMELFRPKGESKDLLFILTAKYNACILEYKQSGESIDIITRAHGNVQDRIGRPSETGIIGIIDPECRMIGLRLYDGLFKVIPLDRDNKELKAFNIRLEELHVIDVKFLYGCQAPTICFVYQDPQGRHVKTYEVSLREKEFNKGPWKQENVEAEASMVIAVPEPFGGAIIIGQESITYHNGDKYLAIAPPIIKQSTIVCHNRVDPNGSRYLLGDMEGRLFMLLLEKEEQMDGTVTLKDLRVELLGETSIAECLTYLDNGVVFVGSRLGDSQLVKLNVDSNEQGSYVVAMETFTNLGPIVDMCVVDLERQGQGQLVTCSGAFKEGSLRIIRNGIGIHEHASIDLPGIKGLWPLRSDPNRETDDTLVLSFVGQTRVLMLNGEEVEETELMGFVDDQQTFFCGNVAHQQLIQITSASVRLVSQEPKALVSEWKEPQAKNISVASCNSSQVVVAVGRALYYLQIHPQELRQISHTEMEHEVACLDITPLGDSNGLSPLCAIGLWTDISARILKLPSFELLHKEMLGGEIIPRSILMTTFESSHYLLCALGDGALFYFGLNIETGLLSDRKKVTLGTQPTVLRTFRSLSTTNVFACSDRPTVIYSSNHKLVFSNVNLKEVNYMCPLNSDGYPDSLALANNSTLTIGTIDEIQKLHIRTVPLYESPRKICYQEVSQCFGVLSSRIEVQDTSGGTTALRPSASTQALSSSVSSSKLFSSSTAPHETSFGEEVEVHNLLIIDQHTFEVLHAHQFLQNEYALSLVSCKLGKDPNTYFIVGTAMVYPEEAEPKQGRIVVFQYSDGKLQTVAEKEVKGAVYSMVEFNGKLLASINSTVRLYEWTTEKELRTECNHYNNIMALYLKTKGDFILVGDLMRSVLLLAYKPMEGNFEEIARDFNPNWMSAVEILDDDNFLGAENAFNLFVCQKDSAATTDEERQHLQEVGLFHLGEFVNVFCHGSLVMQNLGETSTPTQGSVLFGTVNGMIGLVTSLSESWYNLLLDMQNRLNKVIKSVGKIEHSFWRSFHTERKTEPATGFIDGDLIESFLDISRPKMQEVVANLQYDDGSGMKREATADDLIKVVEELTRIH

As for `CC(=O)c1c(C)c2cnc(Nc3ccc(N4CCN(CC(=O)NCCCNc5nc(C)ccc5C(=O)Nc5nc(C)c(C)s5)CC4)cn3)nc2n(C2CCCC2)c1=O` [CPD-1, 2-((3-(2-(4-(6-((6-Acetyl-8-cyclopentyl-5-methyl-7-oxo-7,8-dihydropyrido[2,3-d]pyrimidin-2-yl)amino)pyridin-3-yl)piperazin-1-yl)acetamido)propyl)amino)-N-(4,5-dimethylthiazol-2-yl)-6-methylnicotinamide], the inhibition (as a rule, the percentage by which the read-out fell short of the control) at 0.04 µM is less than 30% and the inhibition at 0.2 µM is 30 to 50%.

`COc1ccc(NC(=O)c2ccc(C)nc2NCCCCCCCNC(=O)CN2CCN(c3ccc(Nc4ncc5c(C)c(C(C)=O)c(=O)n(C6CCCC6)c5n4)nc3)CC2)nn1` [CPD-2, 2-((7-(2-(4-(6-((6-acetyl-8-cyclopentyl-5-methyl-7-oxo-7,8-dihydropyrido[2,3-d]pyrimidin-2-yl)amino)pyridin-3-yl)piperazin-1-yl)acetamido)heptyl)amino)-N-(6-methoxypyridazin-3-yl)-6-methylnicotinamide] yielded an inhibition at 0.04 µM of 50 to 80% and an inhibition at 0.2 µM greater than 80%.

For `CC(=O)c1c(C)c2cnc(Nc3ccc(N4CCN(CC(=O)NCCCCCNc5nc(C)ccc5C(=O)Nc5nc(C)c(C)s5)CC4)cn3)nc2n(C2CCCC2)c1=O` [CPD-3, 2-((5-(2-(4-(6-((6-acetyl-8-cyclopentyl-5-methyl-7-oxo-7,8-dihydropyrido[2,3-d]pyrimidin-2-yl)amino)pyridin-3-yl)piperazin-1-yl)acetamido)pentyl)amino)-N-(4,5-dimethylthiazol-2-yl)-6-methylnicotinamide], the inhibition at 0.04 µM fell in the range of 50 to 80% and the inhibition at 0.2 µM lay within 50 to 80%.

For the molecule `CNc1ccc(C(=O)Nc2ccc(C)c(C3CC3)n2)c(NCCCCCCCNC(=O)CN2CCN(c3ccc(Nc4ncc5c(C)c(C(C)=O)c(=O)n(C6CCCC6)c5n4)nc3)CC2)n1` [CPD-6, 2-((7-(2-(4-(6-((6-acetyl-8-cyclopentyl-5-methyl-7-oxo-7,8-dihydropyrido[2,3-d]pyrimidin-2-yl)amino)pyridin-3-yl)piperazin-1-yl)acetamido)heptyl)amino)-N-(6-cyclopropyl-5-methylpyridin-2-yl)-6-(methylamino)nicotinamide], the inhibition at 0.04 µM lay in the range of 50 to 80%.

As for `CNc1ccc(C(=O)Nc2ccc(C)c(C3CC3)n2)c(NCCCCCNC(=O)CN2CCN(c3ccc(Nc4ncc5c(C)c(C(C)=O)c(=O)n(C6CCCC6)c5n4)nc3)CC2)n1` [CPD-7, 2-((5-(2-(4-(6-((6-acetyl-8-cyclopentyl-5-methyl-7-oxo-7,8-dihydropyrido[2,3-d]pyrimidin-2-yl)amino)pyridin-3-yl)piperazin-1-yl)acetamido)pentyl)amino)-N-(6-cyclopropyl-5-methylpyridin-2-yl)-6-(methylamino)nicotinamide], the inhibition at 0.04 µM is 50 to 80%.

In turn, `CC(=O)c1c(C)c2cnc(Nc3ccc(N4CCN(CC(=O)NCCCCCCCNc5nc(C)ccc5C(=O)Nc5ccc(C)c(C6CC6)n5)CC4)cn3)nc2n(C2CCCC2)c1=O` [CPD-9, 2-((7-(2-(4-(6-((6-acetyl-8-cyclopentyl-5-methyl-7-oxo-7,8-dihydropyrido[2,3-d]pyrimidin-2-yl)amino)pyridin-3-yl)piperazin-1-yl)acetamido)heptyl)amino)-N-(6-cyclopropyl-5-methylpyridin-2-yl)-6-methylnicotinamide] returned an inhibition at 0.04 µM of 50 to 80% and an inhibition at 0.2 µM greater than 80%.

As for `CNc1ccc(C(=O)Nc2ccc(C(C)C)nn2)c(NCCCCCNC(=O)CN2CCN(c3ccc(Nc4ncc5c(C)c(C(C)=O)c(=O)n(C6CCCC6)c5n4)nc3)CC2)n1` [CPD-15, 2-((5-(2-(4-(6-((6-Acetyl-8-cyclopentyl-5-methyl-7-oxo-7,8-dihydropyrido[2,3-d]pyrimidin-2-yl)amino)pyridin-3-yl)piperazin-1-yl)acetamido)pentyl)amino)-N-(6-isopropylpyridazin-3-yl)-6-(methylamino)nicotinamide], the inhibition at 0.04 µM was less than 30% and the inhibition at 0.2 µM is less than 30%.

`CNc1ccc(C(=O)Nc2ccc(N3CCCC3)nn2)c(NCCCCCNC(=O)CN2CCN(c3ccc(Nc4ncc5c(C)c(C(C)=O)c(=O)n(C6CCCC6)c5n4)nc3)CC2)n1` [CPD-17, 2-((5-(2-(4-(6-((6-Acetyl-8-cyclopentyl-5-methyl-7-oxo-7,8-dihydropyrido[2,3-d]pyrimidin-2-yl)amino)pyridin-3-yl)piperazin-1-yl)acetamido)pentyl)amino)-6-(methylamino)-N-(6-(pyrrolidin-1-yl)pyridazin-3-yl)nicotinamide] returned an inhibition at 0.04 µM of less than 30% and an inhibition at 0.2 µM of 30 to 50%.

In the case of `CNc1ccc(C(=O)Nc2ccc(C(F)(F)F)nn2)c(NCCCCCNC(=O)CN2CCN(c3ccc(Nc4ncc5c(C)c(C(C)=O)c(=O)n(C6CCCC6)c5n4)nc3)CC2)n1` [CPD-19, 2-((5-(2-(4-(6-((6-Acetyl-8-cyclopentyl-5-methyl-7-oxo-7,8-dihydropyrido[2,3-d]pyrimidin-2-yl)amino)pyridin-3-yl)piperazin-1-yl)acetamido)pentyl)amino)-6-(methylamino)-N-(6-(trifluoromethyl)pyridazin-3-yl)nicotinamide], the inhibition at 0.04 µM was less than 30%.

In turn, `CNc1ccc(C(=O)Nc2ccc(Cl)cn2)c(NCCCCCNC(=O)CN2CCN(c3ccc(Nc4ncc5c(C)c(C(C)=O)c(=O)n(C6CCCC6)c5n4)nc3)CC2)n1` [CPD-20, 2-((5-(2-(4-(6-((6-acetyl-8-cyclopentyl-5-methyl-7-oxo-7,8-dihydropyrido[2,3-d]pyrimidin-2-yl)amino)pyridin-3-yl)piperazin-1-yl)acetamido)pentyl)amino)-N-(5-chloropyridin-2-yl)-6-(methylamino)nicotinamide] showed an inhibition at 0.04 µM of less than 30%.

The molecule `CNc1ccc(C(=O)Nc2ccc(N(C)C)nn2)c(N(C)CCCCCNC(=O)CN2CCN(c3ccc(Nc4ncc5c(C)c(C(C)=O)c(=O)n(C6CCCC6)c5n4)nc3)CC2)n1` [CPD-23, 2-((5-(2-(4-(6-((6-Acetyl-8-cyclopentyl-5-methyl-7-oxo-7,8-dihydropyrido[2,3-d]pyrimidin-2-yl)amino)pyridin-3-yl)piperazin-1-yl)acetamido)pentyl)(methyl)amino)-N-(6-(dimethylamino)pyridazin-3-yl)-6-(methylamino)nicotinamide] had an inhibition at 0.04 µM of less than 30% and an inhibition at 0.2 µM of less than 30%.

Molecule `CNc1ccc(C(=O)Nc2ccc(N(C)C)nn2)c(Nc2cnn(CCNC(=O)CN3CCN(c4ccc(Nc5ncc6c(C)c(C(C)=O)c(=O)n(C7CCCC7)c6n5)nc4)CC3)n2)n1` [CPD-25, 2-((2-(2-(2-(4-(6-((6-Acetyl-8-cyclopentyl-5-methyl-7-oxo-7,8-dihydropyrido[2,3-d]pyrimidin-2-yl)amino)pyridin-3-yl)piperazin-1-yl)acetamido)ethyl)-2H-1,2,3-triazol-4-yl)amino)-N-(6-(dimethylamino)pyridazin-3-yl)-6-(methylamino)nicotinamide] returned an inhibition at 0.04 µM of less than 30% and an inhibition at 0.2 µM of 50 to 80%.

In turn, `CNc1ccc(C(=O)Nc2ccc(C3CC3)nn2)c(NCCCCCNC(=O)CN2CCN(c3ccc(Nc4ncc5c(C)c(C(C)=O)c(=O)n(C6CCCC6)c5n4)nc3)CC2)n1` [CPD-31, 2-((5-(2-(4-(6-((6-Acetyl-8-cyclopentyl-5-methyl-7-oxo-7,8-dihydropyrido[2,3-d]pyrimidin-2-yl)amino)pyridin-3-yl)piperazin-1-yl)acetamido)pentyl)amino)-N-(6-cyclopropylpyridazin-3-yl)-6-(methylamino)nicotinamide] yielded an inhibition at 0.04 µM of less than 30% and an inhibition at 0.2 µM of 50 to 80%.

For `CNc1ccc(C(=O)Nc2ccc3c(cnn3C)n2)c(NCCCCCNC(=O)CN2CCN(c3ccc(Nc4ncc5c(C)c(C(C)=O)c(=O)n(C6CCCC6)c5n4)nc3)CC2)n1` [CPD-32], the inhibition at 0.04 µM was less than 30% and the inhibition at 0.2 µM is less than 30%.

`CNc1ccc(C(=O)Nc2ccc(N(C)C)nn2)c(NCCCCC(=O)NCCN2CCN(c3ccc(Nc4ncc5c(C)c(C(C)=O)c(=O)n(C6CCCC6)c5n4)nc3)CC2)n1` [CPD-36, 2-((5-((2-(4-(6-((6-Acetyl-8-cyclopentyl-5-methyl-7-oxo-7,8-dihydropyrido[2,3-d]pyrimidin-2-yl)amino)pyridin-3-yl)piperazin-1-yl)ethyl)amino)-5-oxopentyl)amino)-N-(6-(dimethylamino)pyridazin-3-yl)-6-(methylamino)nicotinamide] returned an inhibition at 0.04 µM of 30 to 50% and an inhibition at 0.2 µM of 50 to 80%.

In turn, `CNc1ccc(C(=O)Nc2ccc3c(n2)CCC3)c(NCCCCCNC(=O)CN2CCN(c3ccc(Nc4ncc5c(C)c(C(C)=O)c(=O)n(C6CCCC6)c5n4)nc3)CC2)n1` [CPD-40, 2-((5-(2-(4-(6-((6-Acetyl-8-cyclopentyl-5-methyl-7-oxo-7,8-dihydropyrido[2,3-d]pyrimidin-2-yl)amino)pyridin-3-yl)piperazin-1-yl)acetamido)pentyl)amino)-N-(6,7-dihydro-5H-cyclopenta[b]pyridin-2-yl)-6-(methylamino)nicotinamide] returned an inhibition at 0.04 µM of 50 to 80% and an inhibition at 0.2 µM of 50 to 80%.
